Results from article PMC4628118 (Frontiers in Microbiology, 2015).
pIC50: −log10 of the molar value.

Tests used:
Test in all cases: biochemical
WT HIV-1 PR (NL4-3) = WT HIV-1 PR (NL4-3) (Human immunodeficiency virus type 1 group M subtype B, UniProt P12497)
Procedure: (§1) In vitro transcription and cell-free protein synthesis were performed using WEPRO7240 wheat germ extract (CellFree Sciences, Yokohama, Japan). Transcription was performed using SP6 RNA polymerase, as described previously ([Matsunaga et al., 2014]). The translation reaction was performed in bilayer mode with slight modifications. Briefly, translation mixture (forming the bottom layer) consisted of 10 μl of each mRNA (usually 30–35 μg), 10 μl of WEPRO7240 (CellFree Sciences, Yokohama, Japan), and 0.8 μl of 1 μg/μl creatine kinase (Roche Diagnostics K. K., Tokyo, Japan) in 20.8 μl of SUB-AMIX® (CellFree Sciences, Yokohama, Japan). SUB-AMIX (206 μl) was placed on top of the translation mixture, thus forming the top layer. After incubation at 16°C for 16 h, synthesized proteins were confirmed by immunoblotting. For biotinylation of the substrate, 1 μl (50 ng) of crude biotin ligase (BirA) expressed in a wheat germ cell-free system was added to the bottom layer, and 0.5 μM (final concentration) of D-biotin (Nacalai Tesque, Inc., Kyoto, Japan) was added to both the top and bottom layers, as described previously ([Matsuoka et al., 2010]). As an initial experimental test, radiolabeled protein was produced by cell-free synthesis to confirm the yield and solubility of generated proteins as described previously ([Kamura et al., 2005]). In actual drug susceptibility testing, quantitations of synthesized HIV-1 PR proteins were performed by densitometric scanning of Coomassie Brilliant Blue (CBB)-stained bands as compared with purified HIV-1 PR or bovine serum albumin (BSA) ([Madin et al., 2000]).
(§2) CFDSA was performed using cell-free–synthesized PR, substrate peptide, and the AlphaScreen® system (PerkinElmer, Boston, MA, USA). […] The mixture was incubated at 37°C for 30 min in a 384-well Alphaplate (PerkinElmer). The enzymatic reaction was initiated by the addition of 5 μl of 0.25 μM cell-free–synthesized GST-p2/p7-bls substrate to each well, followed by incubation at 37°C for 2 h. Detection of PR activity was performed essentially as described in the AlphaScreen IgG detection kit instruction manual (PerkinElmer). Briefly, 10 μl of detection mixture containing 20 mM Tris-HCl (pH 7.5), 0.2 mM DTT, 5 mM MgCl2, 5 μg/ml anti-GST antibody, 1 mg/ml BSA, 0.1 μl streptavidin-coated donor beads, and 0.1 μl anti-IgG acceptor beads were added to each well of the 384-well plate, followed by incubation at 23°C for 1 h in the dark. Luminescence signals were analyzed with the AlphaScreen detection program using the EnSpire software (PerkinElmer), and light intensities in the presence of the serially diluted inhibitors were used to calculate their IC50 values. PI-resistance levels were determined by comparing the IC50 values of drug-resistant PR with those of NL4-3 PR. The results for each PR were normalized based on protein productivity, as determined by liquid scintillation counting. IC50 values were calculated using XLfit (ID BUSINESS SOLUTIONS, Guildford, UK). The criteria for CFDSA measurement of resistance were as follows: fold resistance value (FRV) = IC50 ratio of test PR/IC50 ratio of WT PR.
(§3) For the quantitative and high-throughput measurement of HIV-1 PR activity using AlphaScreen technology, we designed a reporter substrate comprising a partial Gag p2-p7 junction peptide flanked by N-terminal GST and C-terminal biotin binding sequence (GST-p2/p7-biotin) as described in Figure 2A.

[1] = target: drug-resistant HIV-1 PR (PR02-A) harboring L10I/G48S/I54V/V82F/L90M mutations (Human immunodeficiency virus type 1 group M subtype B, UniProt P12497, G536S/I542V/L498I/L578M/V570F)
Procedure: as §1, §2, §3

[2] = test system: drug-resistant HIV-1 PR (PR02-A) harboring L10I/G48S/I54V/V82F/L90M mutations; settings: IC50 of drug-resistant PR divided by IC50 of WT PR
Procedure: as §1, §2, §3

CC(C)CN(C[C@@H](O)[C@H](Cc1ccccc1)NC(=O)O[C@H]1CCOC1)S(=O)(=O)c1ccc(N)cc1 [APV, amprenavir]
pIC50 (WT HIV-1 PR (NL4-3)): 7.63 | pIC50 [1]: 7.03 | fold-resistance to WT PR (FRV, DR/WT) [2]: 4.0 fold

COC(=O)N[C@H](C(=O)N[C@@H](Cc1ccccc1)[C@@H](O)CN(Cc1ccc(-c2ccccn2)cc1)NC(=O)[C@@H](NC(=O)OC)C(C)(C)C)C(C)(C)C [ATV, atazanavir]
pIC50 (WT HIV-1 PR (NL4-3)): 7.75 | pIC50 [1]: 6.86 | fold-resistance to WT PR (FRV, DR/WT) [2]: 7.7 fold
